Results reported in patent publication US10849955B2, “Methods of treating pancreatic cancer using GPCR antagonists” (City of Hope, priority 2016, dated 2020).

Experiments:
Type in all cases: cell-based, human
[1] = tested on: EGFR; test: EGFR phosphorylation in PANC-1 cells, Western blot kinetic study; conditions: 10 nM agonist(s), pEGFR over total EGFR
Protocol: To prepare protein extracts, cells were pelleted by centrifugation and washed twice in PBS. The pellet was resuspended in lysis buffer (50 mM Tris, pH 8.0, 150 mM sodium chloride, 1% NP-40, supplemented Protease and Phosphatase Inhibitor Mini Tablets, Pierce) and incubated on a rotator for 30 min at 4° C. Subsequently, the cells were pelleted by centrifugation at 10,000 rpm for 20 min at 4° C. The protein lysate (supernatant) was used immediately or stored at −80° C. Membrane proteins were isolated using the Mem-Per Plus Membrane protein isolation kit (Thermo Scientific) per the manufacturer′ instructions. Briefly, adherent cells were scraped and centrifuged for 5 min at 300×g. The cell pellet was washed 2 times using Cell Wash solution and centrifuged for 5 min at 300×g. The cell pellet was permeabilized using Permeabilization Buffer and incubated at 4° C. for 10 mins on a rotator. […] Proteins were detected with Pierce ECL detection reagents (Pierce). […]
Cells were treated with 10 nM Dermorphin [Y(D-ALA)FGYPKC; Genscript], 10 nM (1R,1′S,3′R/1R,1′R,3′S)-L-054,264 (Tocris) individually and in combination for the indicated times. […] Blots were imaged on film and quantified using the Image Lab software (Biorad). ERK1/2 and EGFR phosphorylation at each time point was quantified and normalized by calculating the ratio of pERK1/2 over total ERK1/2 and pEGFR over total EGFR in each lane. […]

[2] = tested on: pERK1/2; test: pERK1/2 localization in PANC-1 cells, confocal imaging; conditions: 3 or 30 min, 10 nM dermorphin, 10 nM L-054,264, 100 ng/ml CXCL12
Protocol: For pERK1/2 activation studies, after 24 hours, normal pancreatic and/or PANC-1 cells were treated with 1) 10 nM dermorphin; 2) 10 nM L-054,264; 3) 10 nM dermorphin plus 10 nM L-054,264; 4) 100 ng/ml CXCL12; and 5) 10 nM dermorphin plus 100 ng/ml CXCL12 for either 3 min or 30 min as indicated. PANC-1 NS, PANC-1/β arreatin2, PANC-1/SSTR2si and PANC-1/MORsi cells were treated with 10 nM dermorphin with 10 nM L-054,264 for 3 min. Following treatment, cells were washed and fixed with 4% (w/v) paraformaldehyde and 0.2% (w/v) glutaraldehyde for 30 min and inactivated with 25 mM glycine for 10 min. Cells were then washed in PBS and subsequently permeabilized on ice using 0.5% tween-20 in PBS for 20 min similarly as before (Smith et al., 2004). Cells were washed with PBS and blocked with 5% BSA in PBS for 10 min. Cells were incubated for 1 h at 37° C. with 2 μg/mL of primary antibody (anti-pERK1/2). Subsequently, cells were washed 3 times with 0.5% tween-20 in PBS for 5 min each and incubated with 2 μg/mL of Alexa Fluor 647 labeled secondary antibody in PB for 45 min. Following incubation with secondary antibody, cells were washed 3 times with 0.5% tween-20 in PBS. Cells were covered with mounting media DAPI (Vector Labs), mounted on slides, and imaged on a Zeiss LSM700 confocal microscope.

[3] = tested on: N-cadherin, MMP-9, vimentin and E-cadherin; test: EMT marker mRNA levels in PANC-1 cells, RT-PCR; conditions: 10 nM dermorphin, 100 ng/mL CXCL12
Protocol: RNA was isolated using the RNAeasy Plus Kit (Qiagen) according to the manufacturer's protocol. For the EMT markers assay, cells were first treated with appropriate agonists where indicated for 24 hours followed by cell lysis and RNA extraction. cDNA was synthesized from 2 μg RNA using Bioline cDNA synthesis kit according to the manufacturer's protocol. The synthesized cDNAs were used as templates for PCRs with primers as described below. RT-PCR was performed using 5×RT Mastermix (Applied Biosystems). The reactions were analyzed on the CFX96 Real time instrument (Biorad). Themocycler conditions were 95° C. for 10 min for 1 cycle, 95° C. for 15 sec and 60° C. for 1 min for 50 cycles. GAPDH was used as an internal control. For GPCR assays, COS-7 cells were used as negative and MCF-7 cells as positive controls. For EMT marker assays, fold change was calculated as a ratio of treated to untreated control.

| Substance | EGFR phosphorylation [1] | pERK1/2 localization [2] | mRNA levels of 4 markers (N-cadherin, E-cadherin, MMP-9, vimentin) [3] |
| --- | --- | --- | --- |
| (1R,1′S,3′R/1R,1′R,3′S)-L-054,264 | induced modest EGFR phosphorylation |  |  |
| CXCL12: selective CXCR4 agonist |  | high levels of nuclear pERK1/2 | did not have a significant effect |
